What was measured:
[1] = system: AD constricted rabbit aorta; test: Relaxing effects on vascular smooth muscle constricted by adrenaline hydrochloride (AD) in vitro; settings: Oryctolagus cuniculus; relaxation of rabbit aorta constricted by adrenaline (10^−5 mol/L); mean±SEM, n=5
Experimental: Adrenaline hydrochloride (AD) (10^−5 mol/L) was added into a bath tube to induce constriction, when maximal constriction was achieved, the sample was completely flushed, K-H solution was changed for every 20 min. Contents in the tube was balanced for 60 min, when baseline recovered to be stable, the […] was added at the same concentration to induce constriction. When the later maximal constriction response was basically consistent with the former one, the prepared compound solutions were subsequently added, including compound II-1 to II-60 solutions (1×10^−8-1×10^−3 mol/L), compound II-84 to II-123 solutions (1×10^−10-1×10^−2 mol/L) and compound II-124 to II-157 solutions (1×10^−10˜1×10^−3 mol/L), to record the waveforms. Relaxing percentage of the compound was used as Y axis, maximal relaxation response was 100%, negative logarithm of different concentration was used as X axis, to draw dose effect curve (expressed in mean±SEM ( ? ), n=5). Compounds II-2 and II-3 had the most obvious relaxing effects (FIG. 1 and FIG. 8).

[2] = system: high kalium concentration constricted rabbit aorta; test: Relaxing effects on vascular smooth muscle constricted by high kalium concentration in vitro; settings: Oryctolagus cuniculus, relaxation of rabbit aorta constricted by high kalium solution (K+ 60 mmol/L); mean±SEM, n=5
Experimental: Adrenaline hydrochloride (AD) (10^−5 mol/L) was added into a bath tube to induce constriction, when maximal constriction was achieved, the sample was completely flushed, K-H solution was changed for every 20 min. Contents in the tube was balanced for 60 min, when baseline recovered to be stable, K-H solution in the bath tube was replaced with high kalium concentration solution to induce constriction. When the later maximal constriction response was basically consistent with the former one, the prepared compound solutions were subsequently added, including compound II-1 to II-60 solutions (1×10^−8-1×10^−3 mol/L), compound II-84 to II-123 solutions (1×10^−10-1×10^−2 mol/L) and compound II-124 to II-157 solutions (1×10^−10-1×10^−3 mol/L), to record the waveforms. Relaxing percentage of the compound was used as Y axis, maximal relaxation response was 100%, negative logarithm of different concentration was used as X axis, to draw dose effect curve (expressed in mean±SEM ( ? ), n=5). Compounds II-2 and II-3 had the most obvious relaxing effects (FIG. 2 and FIG. 9).

Row | SMILES | EC50 [1] [µM] | EC50 [2] [µM]
1 | Fc1ccc2c(N3CCN(CCCCn4cnc5ccccc54)CC3)coc2c1 [II-21, 1-(4-(4-(3-(6-fluorobenzofuranyl))piperazine-1-yl)butyl)-1H-benzimidazole] | 89.1 | 178
2 | Fc1ccc2c(N3CCN(CCCOn4cnc5ccccc54)CC3)noc2c1 [II-22, 1-(3-(4-(3-(6-fluorobenzisoxazolyl))piperazine-1-yl)propoxyl)-1H-benzimidazole] | 28.2 | 22.9
3 | c1ccc2c(N3CCN(CCCCn4nnc5ccccc54)CC3)cccc2c1 [II-47, 1-(4-(4-(1-naphthyl)piperazine-1-yl)butyl)-1H-benzotriazole] | 132 | 288
4 | COc1ccc2nnn(CCCN3CCC(c4nsc5cc(F)ccc45)CC3)c2c1 [II-149, N-(3-(6-methoxylbenzotriazolyl)propyl)-4-(3-(6-fluorobenzisothiazolyl))piperidine] | 97.7 | 490
5 | c1ccc2c(c1)ncn2CCCCN1CCN(c2ccncc2)CC1 [II-13, 1-(4-(4-(4-pyridyl)piperazine-1-yl)butyl)-1H-benzimidazole] | 38.9 | 30.2
6 | c1ccc2c(N3CCN(CCCCn4cnc5ccccc54)CC3)cccc2c1 [II-16, 1-(4-(4-(1-naphthyl)piperazine-1-yl)butyl)-1H-benzimidazole] | 51.3 | 64.6
7 | Cc1ccc(N2CCN(CCCCn3cnc4ccccc43)CC2)cc1 [II-11, 1-(4-(4-(4-methylphenyl)piperazine-1-yl)butyl)-1H-benzimidazole] | 89.1 | 141
8 | N#Cc1cccc(N2CCN(CCCCn3nnc4ccccc43)CC2)c1 [II-41, 1-(4-(4-(3-cyanophenyl)piperazine-1-yl)butyl)-1H-benzotriazole] | 30.9 | 24.5
9 | N#Cc1ccc2nnn(CCCCN3CCN(c4cccc(C(F)(F)F)c4)CC3)c2c1 [II-55, 6-cyano-1-(4-(4-(3-trifluoromethylphenyl)piperazine-1-yl)butyl)-1H-benzotriazole] | 97.7 | 195
10 | c1ccc2c(c1)nnn2CCCCN1CCN(c2nsc3ccccc23)CC1 [II-34, 3-(4-(4-(1H-benzotriazole-1-yl)butyl)piperazine-1-yl)benzisothiazole] | 0.00851 | 17
11 | Cc1nc2ccccc2n1CCCN1CCN(c2cccc(F)c2)CC1 [II-9, 2-methyl-1-(3-(4-(3-fluorophenyl)piperazine-1-yl)propyl)-1H-benzimidazole] | 42.7 | 52.5
12 | c1cnc(N2CCN(CCCCn3cnc4ccccc43)CC2)nc1 [II-14, 1-(4-(4-(2-pyrimidinyl)piperazine-1-yl)butyl)-1H-benzimidazole] | 60.3 | 89.1
13 | c1ccc2c(c1)nnn2CCCCN1CCN(c2ccncc2)CC1 [II-44, 1-(4-(4-(4-pyridyl)piperazine-1-yl)butyl)-1H-benzotriazole] | 70.8 | 186
14 | c1coc(N2CCN(CCCCn3nnc4ccccc43)CC2)c1 [II-43, 1-(4-(4-(2-furyl)piperazine-1-yl)butyl)-1H-benzotriazole] | 35.5 | 141
15 | Cc1cc2nnn(CCCCN3CCN(c4cccc(C(F)(F)F)c4)CC3)c2cc1C [II-33, 5,6-dimethyl-1-(4-(4-(3-trifluoromethylphenyl)piperazine-1-yl)butyl)-1H-benzotriazole] | 40.7 | 115
16 | c1ccc2nc(N3CCN(CCCCn4cnc5ccccc54)CC3)cnc2c1 [II-17, 1-(4-(4-(2-quinoxalinyl)piperazine-1-yl)butyl)-1H-benzimidazole] | 29.5 | 49
17 | FC(F)(F)c1cccc(N2CCN(CCCn3ncc4ccccc43)CC2)c1 [II-59, 1-(3-(4-(3-trifluoromethylphenyl)piperazine-1-yl)propyl)-1H-benzopyrazole] | 29.5 | 61.7
18 | N#Cc1cccc(N2CCN(CCCCn3cnc4ccccc43)CC2)c1 [II-10, 1-(4-(4-(3-cyanophenyl)piperazine-1-yl)butyl)-1H-benzimidazole] | 55 | 110
19 | Fc1ccc2c(N3CCN(CCCn4nnc5ccccc54)CC3)coc2c1 [II-51, 1-(3-(4-(3-(6-fluorobenzofuranyl))piperazine-1-yl)propyl)-1H-benzotriazole] | 30.2 | 34.7
20 | c1ccc2nc(N3CCN(CCCCn4nnc5ccccc54)CC3)cnc2c1 [II-48, 1-(4-(4-(2-quinoxalinyl)piperazine-1-yl)butyl)-1H-benzotriazole] | 148 | 372
21 | N#Cc1ccc2ccn(CCCCN3CCN(c4cccc(Cl)c4)CC3)c2c1 [II-58, 6-cyano-1-(4-(4-(3-chlorophenyl)piperazine-1-yl)butyl)-1H-indole] | 67.6 | 178
22 | Fc1ccc2c(N3CCN(CCCOn4nnc5ccc(F)cc54)CC3)nsc2c1 [II-53, 6-fluoro-1-(4-(4-(3-(6-fluoro-benzisothiazolyl))piperazine-1-yl)propoxyl)-1H-benzotriazole] | 52.5 | 132
23 | Fc1ccc2c(N3CCN(CCCCn4cnc5ccccc54)CC3)nsc2c1 [II-19, 1-(4-(4-(3-(6-fluorobenzisothiazolyl))piperazine-1-yl)butyl)-1H-benzimidazole] | 66.1 | 87.1
24 | Fc1ccc2c(N3CCN(CCCCn4nnc5ccccc54)CC3)nsc2c1 [II-49, 1-(4-(4-(3-(6-fluorobenzisothiazolyl))piperazine-1-yl)butyl)-1H-benzotriazole] | 89.1 | 141
25 | Clc1cccc(N2CCN(CCCOn3cnc4ccccc43)CC2)c1 [II-24, 1-(4-(4-(3-chlorphenyl)piperazine-1-yl)propoxyl)-1H-benzimidazole] | 30.2 | 30.2

The next lines start with the values.

Row | EC50 [1] [µM] | EC50 [2] [µM] | SMILES
26 | 2.95 | 295 | N#Cc1ccc2nnn(CCCCN3CCC(c4noc5cc(F)ccc45)CC3)c2c1 [II-145, N-(4-(6-cyanobenzotriazolyl)butyl)-4-(3-(6-fluorobenzisoxazolyl))piperidine]
27 | 19.1 | 38 | FC(F)(F)c1cccc(N2CCN(CCCOn3cnc4ccccc43)CC2)c1 [II-23, 1-(4-(4-(3-trifluoromethylphenyl)piperazine-1-yl)propoxyl)-1H-benzimidazole]
28 | 19.5 | 38.9 | Fc1cccc(N2CCN(CCCn3cnc4ccccc43)CC2)c1 [II-8, 1-(3-(4-(3-fluorophenyl)piperazine-1-yl)propyl)-1H-benzimidazole]
29 | 16.2 | 29.5 | FC(F)(F)c1cccc(N2CCN(CCCCn3cnc4ccc(Cl)cc43)CC2)c1 [II-25, 6-chloro-1-(4-(4-(3-trifluoromethylphenyl)piperazine-1-yl)butyl)-1H-benzimidazole]
30 | 4.9 | 4.9 | Fc1ccc2c(N3CCN(CCCCn4nnc5ccccc54)CC3)noc2c1 [II-36, 6-fluoro-3-(4-(4-(1H-benzotriazole-1-yl)butyl)piperazine-1-yl)benzisoxazole]
31 | 23.4 | 38.9 | Fc1ccc2ncn(CCCCN3CCN(c4cccc(C(F)(F)F)c4)CC3)c2c1 [II-6, 6-fluoro-1-(4-(4-(3-trifluoromethylphenyl)piperazine-1-yl)butyl)-1H-benzimidazole]
32 | 1.2 | 120 | Fc1ccc2c(C3CCN(CCn4nnc5ccccc54)CC3)noc2c1 [II-143, N-(2-(1-benzotriazolyl)ethyl)-4-(3-(6-fluorobenzisoxazolyl))piperidine]
33 | 11 | 16.2 | COc1ccccc1N1CCN(CCCCn2cnc3ccccc32)CC1 [II-4, 1-(4-(4-(2-methoxyphenyl)piperazine-1-yl)butyl)-1H-benzimidazole]
34 | 3.02 | 7.41 | Fc1cccc(N2CCN(CCCCn3nnc4ccccc43)CC2)c1 [II-30, 1-(4-(4-(3-fluorophenyl)piperazine-1-yl)butyl)-1H-benzotriazole]
35 | 9.33 | 8.91 | Clc1cccc(N2CCN(CCCCn3cnc4ccccc43)CC2)c1 [II-1, 1-(4-(4-(3-chlorophenyl)piperazine-1-yl)butyl)-1H-benzimidazole]
36 | 4.47 | 5.13 | COc1cccc(N2CCN(CCCCn3nnc4ccccc43)CC2)c1 [II-40, 1-(4-(4-(3-methoxyphenyl)piperazine-1-yl)butyl)-1H-benzotriazole]
37 | 16.6 | 29.5 | Cc1nc2ccccc2n1CCCCN1CCN(c2cccc(C(F)(F)F)c2)CC1 [II-5, 2-methyl-1-(4-(4-(3-trifluoromethylphenyl)piperazine-1-yl)butyl)-1H-benzimidazole]
